Patent publication US8552161B2, “Saponin compounds, methods of preparation thereof, use thereof and pharmaceutical compositions” (Uniwersytet W Bialymstoku, priority 2009, dated 2013)

Legend:
[1] = tested on: T-lymphoblastic leukemia cell line CEM; assay: Calcein AM cytotoxicity assay, CEM; type: cell-based; settings: Calcein AM assay, 72 h; means ± SD, three independent experiments in triplicate
Description: (§1) Stock solutions (10 mmol/l) of the tested compounds were prepared by dissolving relevant quantity of the substance in DMSO. […] Calcein AM was obtained from Molecular Probes (Invitrogen Corporation, CA, USA).
(§2) All cell lines were cultured in DMEM medium (Sigma, Mo., USA). Medium was supplemented with 10% heat-inactivated fetal bovine serum, 2 mmol/l L-glutamine and 1% penicillin-streptomycin. The cell lines were maintained under standard cell culture conditions at 37° C. and 5% CO2 in a humid environment. Cells were subcultured twice or three times a week using the standard trypsinization procedure.
(§3) All cell lines were cultured in DMEM medium (Sigma, Mo., USA) supplemented with 10% fetal calf serum, 2 mM glutamine, 100 U/ml penicillin and 100 μg/ml streptomycin, at 37° C. in a fully humidified atmosphere containing 5% CO2. Suspensions of these lines (ca. 1.0×10^5 cells/ml) were placed in 96-well microtitre plates and after 3 h of stabilization the tested compounds were added in serially diluted concentrations. Saponins were dissolved in dimethylsulfoxide (DMSO) before addition to cultures. Control cultures were treated with DMSO alone. The final concentration of DMSO in the reaction mixtures never exceeded 0.6%. Four-fold dilutions of the intended test concentration were added at time zero in 20 μl aliquots to the microtitre plate wells. Usually, each test compound was evaluated at six 4-fold dilutions and in routine testing; the highest well concentration was 50 μM, although this varied in a few cases, depending on the test compound. After 72 h of culture, the cells were incubated with Calcein AM solution (Molecular Probes) for 1 h. The fluorescence of viable cells was quantified using a Fluoroscan Ascent instrument (Microsystems).

[2] = tested on: breast carcinoma cell line MCF7; assay: Calcein AM cytotoxicity assay, MCF7; type: cell-based, human; settings: Calcein AM assay, 72 h; means ± SD, three independent experiments in triplicate
Description: as §1, §2, §3

[3] = tested on: malignant melanoma cell line G-361; assay: Calcein AM cytotoxicity assay, G-361; type: cell-based, human; settings: 72 h, means ± SD, three independent experiments in triplicate
Description: as §1, §2, §3

[4] = tested on: cervical carcinoma cell line HeLa; assay: Calcein AM cytotoxicity assay, HeLa; type: cell-based; settings: 72 h, means ± SD, three independent experiments in triplicate
Description: as §1, §2, §3

[5] = tested on: lung carcinoma cell line A549; assay: Calcein AM cytotoxicity assay, A549; type: cell-based, human; settings: 72 h, means ± SD, three independent experiments in triplicate, read-out: IC50, A 549
Description: as §1, §2, §3

[6] = tested on: normal human fibroblasts BJ; assay: Calcein AM cytotoxicity assay, normal fibroblasts BJ; type: cell-based; settings: 72 h, means ± SD, three independent experiments in triplicate
Description: as §1, §2, §3

caspase-3/7 in CEM cells = assay: Activity of caspases-3/7 in treated CEM cells (Ac-DEVD-AMC substrate); type: cell-based; settings: for activity of caspases-3/7 compared with untreated control: 24 h, 3 (1; 2.5; 5 μM), 6 (0.1; 0.25; 0.5 μM)
Description: The CEM cells treated with the novel compounds were harvested by centrifugations and homogenized in an extraction buffer (10 mM KCl, 5 mM HEPES, 1 mM EDTA, 1 mM EGTA, 0.2% CHAPS, inhibitors of proteases, pH 7.4) on ice for 20 min. The homogenates were clarified by centrifugation at 10,000 g for […] at 4° C., the proteins were quantified by the Bradford method and diluted to the same concentration. Lysates were then incubated for 1 h with […] Ac-DEVD-AMC as a substrate (Sigma-Aldrich) in an assay buffer (25 mM PIPES, 2 mM EGTA, 2 mM MgCl2, 5 mM DTT, pH 7.3). For negative controls, the lysates were supplemented with […] Ac-DEVD-CHO as a caspase-3/7 inhibitor (Sigma-Aldrich). The fluorescence of the product was measured using a Fluoroskan Ascent microplate reader (Labsystems) at 346/442 nm (ex/em). Here, we determined the activity of caspase-3/7 in CEM cells exposed to 3, 6 or 7 using a fluorogenic substrate Ac-DEVD-AMC and/or caspase 3/7 inhibitor […]. Cells were treated in a dose-dependent manner with compounds 3 (1; 2.5; 5 μM), 6 (0.1; 0.25; 0.5 μM) and 7 (5; 7.5; 10 μM).

CEM cells = assay: Flow cytometry cell cycle and apoptosis (subG1) analysis; type: cell-based; settings: for distribution of CEM cells in cell cycle phases (FIG. 2): increasing concentrations
Description: The leukemia cancer CEM cells were trypsinized, seeded in 6 well plates, and immediately incubated with the respective compounds. […] Triton X-100, and 50 μg/ml propidium iodide in PBS. DNA content was assessed with a flow cytometer (Cell Lab Quanta SC—MPL, Beckman Coulter, Calif., USA). In a histogram analysis, distribution of cells into the subG1 (“apoptotic cells”), the G0/G1, S and the G2/M peak was quantified using software MultiCycle AV (Phoenix Flow Systems, CA, USA).

leukemia cells (CEM) = assay: Western blot analysis of apoptosis related proteins; type: cell-based; settings: 24 h
Description: The cells were seeded in a density 2.2×10^4 cells/cm^2 using culture medium in 100-mm culture dishes. Immediately the cells were treated by novel saponins: 3 (1; 2.5; 5 μM), 6 (0.1; 0.25; 0.5 μM) and 7 (5; 7.5; 10 μM). DMSO was used as a vehicle for controls. After 24 h treatment, the cells were washed three times with cold PBS (10 mM, pH 7.4) and lysed in ice-cold protein extract RIPA buffer (20 mM Tris-HCl, pH 7.4, 5 mM EDTA, 2 mM EGTA, 100 mM NaCl, 2 mM NaF, 0.2% Nonidet P-40, 30 mM PMSF, 1 mM DTT, […] of aprotinin and leupeptin). The lysate was collected into microfuge tube and incubated on ice for 1 h. It was then cleared by centrifugation at 10,000×g for […] at 4° C., and supernatant was collected, aliquoted, and stored at −80° C. Proteins in lysates were quantified by the Bradford method and then diluted with Laemmli electrophoresis buffer. Proteins were then separated on 10% or 12% SDS-polyacrylamide gels, transferred onto nitrocellulose membranes (Bio-Rad Laboratories, CA, USA) and stained with Ponceau S to check equal protein loading. The membranes were blocked with 5% (w/v) non-fat dry milk and 0.1% Tween-20 in PBS for 2 h and probed with the specific primary antibodies overnight. After washing in PBS and PBS with 0.1% Tween-20, the membranes were probed with horseradish peroxidase-conjugated secondary antibodies and visualized with chemiluminescent detection reagent West Pico Supersignal (Thermo Fisher Scientific, Rockford, USA). To confirm equal protein loading, immunodetection was performed with the anti-α-tubulin monoclonal antibody. The experiments were repeated three times. The protein expressions in treated cells were compared to untreated controls.

CCCCCCC(=O)OC[C@@H](C)[C@@]1(O)[C@@H](O[C@@H]2OC[C@H](O)[C@H](O[C@@H]3OC[C@@H](O)[C@H](O)[C@H]3OC(=O)c3ccc(OC)cc3)[C@H]2OC(C)=O)C[C@H]2[C@@H]3CC=C4C[C@@H](O)CC[C@]4(C)[C@H]3CC[C@@]21C [Compound 5, (20R)-21-O-Heptanoyl-20-methylpregn-5-ene-3β,16β,17α,21-tetraol 16-O-{2-O-(4-methoxybenzoyl)-β-D-xylopyranosyl-(1-3)-2′-O-acetyl-α-L-arabinopyranoside}]
IC50 [1]: 10 ± 2 nM | IC50 [2]: 400 ± 40 nM | IC50 [3]: 1280 ± 200 nM | IC50 [4]: 30 ± 2 nM | IC50 [5]: 20 ± 5 nM | IC50 [6]: 600 ± 70 nM

COc1ccc(C(=O)OCC(C)C2(O)C(OC3OCC(O)C(OC4OCC(O)C(O)C4OC(=O)c4ccc(OC)cc4)C3OC(C)=O)CC3C4CC=C5CC(O)CCC5(C)C4CCC32C)cc1 [Compound 3, (20R)-21-O-(4-methoxybenzoyl)-20-methylopregn-5-ene-3β,16β,17α,21-tetraol 16-O-{2-O-(4-methoxybenzoyl)-β-D-xylopyranosyl-(1→3)-2′-O-acetyl-α-L-arabinopyranoside]
activity of caspases-3/7 compared with untreated control (caspase-3/7 in CEM cells): twofold enhancement | caspase-3/7 activity after treatment with higher concentrations (caspase-3/7 in CEM cells): caspase-3/7 activity decreased | subG1 phase of the cell cycle (apoptotic cells) (CEM cells; CEM cell line after treatment): increase in subG1 phase | distribution of CEM cells in cell cycle phases (FIG. 2) (CEM cells): increased the number of S-phase and G2/M cells with concomitant decrease of G0/G1 cells in dose-dependent manner | Apoptosis subG1 (CEM cells; CEM, 24 h, 0.5 μM): 11% | Cell cycle distribution G0/G1 (CEM cells; CEM, 24 h, 0.5 μM): 17% | Cell cycle distribution G2/M (CEM cells; CEM, 24 h, 0.5 μM): 26% | Cell cycle distribution S (CEM cells; CEM, 24 h, 0.5 μM): 46% | PARP (Western blot) (leukemia cells (CEM); dose-dependent (FIG. 5)): cleavage of PARP | caspase-3 (Western blot) (leukemia cells (CEM); dose-dependent (FIG. 5)): accumulation of caspase-3

C=CCCCCCCCCC(=O)OC[C@@H](C)[C@@]1(O)[C@@H](O[C@@H]2OC[C@H](O)[C@H](O[C@@H]3OC[C@@H](O)[C@H](O)[C@H]3OC(=O)c3ccc(OC)cc3)[C@H]2OC(C)=O)C[C@H]2[C@@H]3CC=C4C[C@@H](O)CC[C@]4(C)[C@H]3CC[C@@]21C [Compound 6, (20R)-21-O-(Undec-10-enoyl)-20-methylpregn-5-ene-3β,16β,17α,21-tetraol 16-O-{2-O-(4-methoxybenzoyl)-β-D-xylopyranosyl-(1→3)-O-acetyl-α-L-arabinopyranoside}]
activity of caspases-3/7 compared with untreated control (caspase-3/7 in CEM cells): twofold enhancement | caspase-3/7 activity after treatment with higher concentrations (caspase-3/7 in CEM cells): caspase-3/7 activity decreased | distribution of CEM cells in cell cycle phases (FIG. 2) (CEM cells): increased the number of S-phase and G2/M cells with concomitant decrease of G0/G1 cells in dose-dependent manner | PARP (Western blot) (leukemia cells (CEM); dose-dependent (FIG. 5)): cleavage of PARP | antiapoptotic Bcl-2 protein (leukemia cells (CEM); dose-dependent (FIG. 5)): increased | caspase-3 (Western blot) (leukemia cells (CEM); dose-dependent (FIG. 5)): accumulation of caspase-3 | expression of tumour suppressor protein p53 (leukemia cells (CEM); dose-dependent (FIG. 5)): enhanced expression | phosphorylation of pRb S780 (leukemia cells (CEM); same concentrations (FIG. 5)): increase of phosphorylation of pRb S780

COc1ccc(C(=O)O[C@H]2[C@H](O[C@@H]3[C@@H](OC(C)=O)[C@H](O[C@H]4C[C@H]5[C@@H]6CC=C7C[C@@H](O)CC[C@]7(C)[C@H]6CC[C@]5(C)[C@@]4(O)[C@H](C)COCc4ccccc4)OC[C@@H]3O)OC[C@@H](O)[C@@H]2O)cc1 [Compound 1, (20R)-21-Benzyloxy-20-methylpregn-5-ene-3β,16β,17α-triol 16-O-{2-O-(4-methoxybenzoyl)-β-D-xylopyranosyl-(1→3)-2′-O-acetyl-α-L-arabinopyranoside}]
IC50 [1]: 20 ± 1 nM | IC50 [2]: 600 ± 100 nM | IC50 [3]: 750 ± 80 nM | IC50 [4]: 200 ± 10 nM | IC50 [5]: 100 ± 50 nM | IC50 [6]: 300 ± 40 nM

CCCCC(=O)OC[C@@H](C)[C@@]1(O)[C@@H](O[C@@H]2OC[C@H](O)[C@H](O[C@@H]3OC[C@@H](O)[C@H](O)[C@H]3OC(=O)c3ccc(OC)cc3)[C@H]2OC(C)=O)C[C@H]2[C@@H]3CC=C4C[C@@H](O)CC[C@]4(C)[C@H]3CC[C@@]21C [Compound 4, (20R)-21-O-pentanoyl-20-methylpregn-5-ene-3β,16β,17α,21-tetraol 16-O-{2-O-(4-methoxybenzoyl)-β-D-xylopyranosyl-(1→3)-2′-O-acetyl-α-L-arabinopyranoside}]
IC50 [1]: 60 ± 10 nM | IC50 [2]: 500 ± 70 nM | IC50 [3]: 390 ± 60 nM | IC50 [4]: 170 ± 10 nM | IC50 [5]: 160 ± 40 nM | IC50 [6]: 500 ± 60 nM

COc1ccc(C(=O)O[C@H]2[C@H](O[C@@H]3[C@@H](OC(C)=O)[C@H](O[C@H]4C[C@H]5[C@@H]6CC=C7C[C@@H](O)CC[C@]7(C)[C@H]6CC[C@]5(C)[C@@]4(O)[C@H](C)COC(=O)c4ccccc4)OC[C@@H]3O)OC[C@@H](O)[C@@H]2O)cc1 [Compound 2, (20R)-21-O-benzoyl-20-methylpregn-5-ene-3β,16β,17α,21-tetraol 16-O-{2-O-(4-methoxybenzoyl)-β-D-xylopyranosyl-(1→3)-2′-O-acetyl-α-L-arabinopyranoside}]
IC50 [1]: 70 ± 10 nM | IC50 [2]: 700 ± 100 nM | IC50 [3]: 1660 ± 900 nM | IC50 [4]: 240 ± 60 nM | IC50 [5]: 170 ± 40 nM | IC50 [6]: 100 ± 20 nM
